Experimental data: patent publication US6423692B2 (priority 1997, dated 2002)

Legend:
[1] = system: 9L-Neo cells; assay: Incorporation of ara-C into DNA; format: cell-based, rat; settings: one million cells
Protocol: (§1) Three and 6 h later, labeled cells were harvested, and digested by the addition of 2.5 mg proteinase-K (Boehringer-Mannheim, Indianapolis, Ind.) in 2 ml of 10 mM Tris (pH 7.4), 1 mM EDTA, and 0.5% SDS. Subsequent purification was accomplished by phenol extraction. The nucleic acids were precipitated, centrifuged, treated with RNase A and then assayed for radioactivity [Major, P. D., et al., Proc. Natl. Acad. Sci. USA 78:3235-3239 (1981)].

[2] = system: 9L-WT cells; assay: Incorporation of ara-C into DNA; format: cell-based, rat; settings: one million cells
Protocol: as §1

[3] = system: 9L-Neo cells; assay: cells; format: cell-based; settings: Rattus norvegicus, 120 h, read-out: Cytotoxicity, cell viability
Protocol: Surviving cells were then counted 3 days later. Data represent means+s.e.m. […] Data represent the means +s.e.m. (bars) of five separate experiments.
In order to determine whether the dCK/ara-C-mediated bystander effect is dependent on direct cell-to-cell contact, 9L-Neo cells were plated on the bottom of a microliter transwell either directly with 9L-dCK cells or separated from the 9L-dCK cells by a 3-μm porous membrane. Significant cytotoxicity (38%+2% of control) was also seen in the 9L-Neo cells that were directly mixed in the bottom compartment with the 9L-dCK cells, compared with minimal cytotoxicity (81% of control) when the 9L-Neo cells were separated from the 9L-dCK cells by the membrane (FIG. 3b). The difference in cytotoxicity between cell-to-cell and membrane separated cell killing was statistically significant; P<0.01.

[4] = system: 9L-Neo tumors; assay: Growth of intradermal tumors in syngeneic rat; format: in vivo, Fischer 344 rats
Protocol: Implantation of intradermal tumors. […] Tumor volume was calculated by multiplying the values of three perpendicular diameters. Statistical analysis was performed using an unpaired, two-tailed, Student's t-test.
Treatment of animals. […] Oncol.

[5] = system: 9L cells transduced by Ad.CMVdCK; assay: Cytotoxic assay after adenoviral transduction; format: cell-based; settings: Rattus norvegicus, 24 h
Protocol: (§2) FIGS. 6A and 6B show in vitro sensitivity to ara-C following transduction with dCK-expressing or control virus. 9L cells (2×10^3) were infected as follows: (FIG. 6A) Ad.CMVβgal at MOI 0 (●), 50 (▪), 500 ( ? ); and (FIG. 6B) Ad.CMVdCK at MOI 0 (◯), 50 (□) and 500 ( ? ). […] Cytotoxicity was determined by staining with methylene blue. […] The difference in cell killing was highly statistically significant for cells treated with Ad.CMVdCK at an MOI of 500 (P<0.00 1).
(§3) Cytotoxic assays were performed to determine whether 9L transduction by Ad.CMVdCK confers ara-C sensitivity. Forty-eight hours after transduction, 9L cells were exposed to various concentrations of ara-C for 24 hours. Forty-eight hours later, cells were assayed for cytotoxic effects.

[6] = system: 9L cells transduced by Ad.CMVβgal; assay: Cytotoxic assay after adenoviral transduction; format: cell-based; settings: Rattus norvegicus; Ad.CMVβgal at different MOIs, 48 h after transduction, 24 hours ara-C
Protocol: as §2, §3

[7] = system: intracerebral 9L glioma; format: in vivo, Fischer 344 rats
Protocol: 9L-Neo or 9L-dCK cells (2×10^4) were injected into right caudate nucleus of the brain. Four days later, viral vehicle or 2×10^8 PFU of recombinant adenoviruses were injected into the tumors stereotaxically using the same route of previous 9L inoculation (V).
Four days later, viral vehicle, or 2×10^8 PFU (plaque-forming units) of either the Ad.CMVβgal or Ad.CMVdCK vectors were stereotactically injected into the tumors.
(§4) Implantation of intracerebral tumors. 9L-Neo and 9L-dCK cells were stereotaxically implanted into the right caudate nucleus of Fischer 344 rats using a modification of the method of Kobayashi [Kobayashi, N. et al. J. Neurosurg. […] In brief, male Fischer 344 rats (150-175 g) were anesthetized and placed in a small animal stereotaxic frame (Kopf Instruments). Tumor cells (2×10^4/10 μl) were injected with a 701 Hamilton syringe over 30 s to a depth of 4.5 mm, 1.3 mm posterior and 4 mm to the right of the bregma. […] Statistical significance of survival between different groups was assessed using log rank analysis of Kaplan Meier survival curves.

[8] = system: 9L-Neo tumors; assay: Survival of rats with intracerebral tumors; settings: intracerebral 9L-Neo tumors, ara-C 200 mg/kg; P<0.02
Protocol: 9L-Neo or 9L-dCK cells (2×10^4) were stereotaxically injected into right caudate nucleus of the brain.
In a second experiment, intracerebral tumors were established and rat survival was measured. Secondary to restricted intracranial volume, the survival of rats in this model represents a very reproducible parameter for determining the growth of transplanted tumors or tumor cell lines in vivo.
as §4

Nc1ccn([C@@H]2O[C@H](CO)[C@@H](O)[C@@H]2O)c(=O)n1 [ara-C, 1-β-D-arabinofuranosyl-cytosine]
Incorporation of ara-C into DNA ([1]; 3 hours, 10^−7 M [3H]ara-C): 0.502 ± 0.198 pmol | Incorporation of ara-C into DNA ([1]; 3 hours, 10^−8 M [3H]ara-C): 0.067 ± 0.007 pmol | Incorporation of ara-C into DNA ([1]; 6 hours, 10^−7 M [3H]ara-C): 1.926 ± 0.259 pmol | Incorporation of ara-C into DNA ([1]; 6 hours, 10^−8 M [3H]ara-C): 0.403 ± 0.101 pmol | Incorporation of ara-C into DNA ([2]; 3 hours, 10^−7 M [3H]ara-C): 0.359 ± 0.061 pmol | Incorporation of ara-C into DNA ([2]; 3 hours, 10^−8 M [3H]ara-C): 0.054 ± 0.001 pmol | Incorporation of ara-C into DNA ([2]; 6 hours, 10^−7 M [3H]ara-C): 1.905 ± 0.652 pmol | Incorporation of ara-C into DNA ([2]; 6 hours, 10^−8 M [3H]ara-C): 0.305 ± 0.094 pmol | viability at 0.2 µM [3]: 38% | Tumor size ([4]; intradermal 9L-Neo tumors, ara-C 200 mg/kg s.c. every 8 h for 2 days, two courses): 9556+2272 mm^3 | Growth of 9L-Neo tumors, ara-C versus PBS ([4]; intradermal, ara-C 200 mg/kg): no significant difference in the growth | IC50 ([5]; Ad.CMVdCK MOI 0, 24 hours ara-C): 0.3 µM | IC50 ([5]; Ad.CMVdCK MOI 50, 24 hours ara-C): 0.19 µM | IC50 ([5]; Ad.CMVdCK MOI 500, 24 hours ara-C, P<0.001): 0.08 µM | IC50 [6]: ~0.3 µM | Survival of animals treated with Ad.CMVdCK and ara-C ([7]; 2×10^8 PFU Ad.CMVdCK intratumoral, versus viral vehicle or Ad.CMVβgal and ara-C, P<0.0005): survived much longer | Survival of vehicle and Ad.CMVβgal injected animals treated with ara-C ([7]; versus PBS-treated animals, P<0.02): longer than that seen in the PBS-treated animals | Prolongation of median survival compared with PBS-treated animals [8]: 8 days
